Assays:
[1] = target: T1, human SGLT1 (Homo sapiens, UniProt P13866); test: hSGLT1 inhibitor activity experiment 2: 2-NBDG uptake by HEK293 cells stably expressing human SGLT1; assay type: cell-based; details: for IC50: 2-NBDG uptake, HEK293 stably expressing human SGLT1, read-out: SGLT1 Inhibitory Activity
T1 construct: expressed in transfected cells
T1 sequence (P13866 1-664): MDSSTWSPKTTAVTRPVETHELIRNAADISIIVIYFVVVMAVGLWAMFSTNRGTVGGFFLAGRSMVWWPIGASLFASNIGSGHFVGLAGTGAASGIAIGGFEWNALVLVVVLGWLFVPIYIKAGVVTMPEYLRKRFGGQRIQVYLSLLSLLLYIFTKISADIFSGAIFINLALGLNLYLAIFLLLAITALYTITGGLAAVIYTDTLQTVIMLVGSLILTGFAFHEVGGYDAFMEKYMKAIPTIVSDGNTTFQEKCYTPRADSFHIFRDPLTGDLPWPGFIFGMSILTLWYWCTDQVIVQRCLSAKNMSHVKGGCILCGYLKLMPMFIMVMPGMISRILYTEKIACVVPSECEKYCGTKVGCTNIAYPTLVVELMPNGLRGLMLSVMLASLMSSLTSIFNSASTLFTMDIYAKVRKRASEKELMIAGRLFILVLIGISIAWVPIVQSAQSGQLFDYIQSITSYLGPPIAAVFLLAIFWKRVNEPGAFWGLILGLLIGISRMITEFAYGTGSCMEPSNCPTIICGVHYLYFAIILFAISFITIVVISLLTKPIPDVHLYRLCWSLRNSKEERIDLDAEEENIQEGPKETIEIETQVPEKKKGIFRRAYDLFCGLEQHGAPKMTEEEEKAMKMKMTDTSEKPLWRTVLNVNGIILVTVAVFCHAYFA
Protocol: Inhibitory activity testing was performed with reference to a similar method described in document [Acta Pharmaceutica Sinica 2017, 52 (6): 897-903; Nature Protocols (2007), 2(3), 753-762; Journal of Biochemical and Biophysical Methods (2005), 64(3), 207-215; Diabetes Technology & Therapeutics (2011), 13(7), 743-775].
In this experiment, the in vitro activity assay was evaluated using the uptake of 2-NBDG (2-Deoxy-2-[(7-nitro-2,1,3-benzoxadiazol-4-yl)amino]-D-glucose, CAS NO: 186689-07-6) by human embryonic kidney epithelial cells (HEK293, stably expressing human SGLT1), and the SGLT1 inhibitory activity of the target compound was determined by measuring its half-maximal inhibitory concentration (IC50).
HEK293 cells that can stably express human SGLT1 gene were inoculated into a 96-well clear-bottom black plate containing DMEM medium. The cells were incubated at 37° C., 5% CO2 in a cell incubator. The medium in the 96-well plate was aspirated, and the plate was treated with low-glucose serum-free DMEM medium, and washed once with non-specific uptake buffer and once with Na^+-dependent uptake buffer. Uptake buffer containing test compound was added to each well of cells, followed by uptake buffer containing 2-NBDG for glucose uptake, and the cell plate was incubated at 37° C., 5% CO2. The compounds were gradiently diluted. The uptake reaction was stopped by removing the culture medium, and after washing the cells with ice-cold uptake buffer, the washing solution was removed. The cells were lysed by adding NaOH, and the content of 2-NBDG in the cells was detected by a fluorescence microplate reader. The protein concentration of the lysate was measured by BCA method, the uptake of 2-NBDG was quantified by fluorescence intensity/protein content, and the obtained data were analyzed using GraphPad Prism to determine the median inhibitory concentration (IC50) of the compound to be tested.

[2] = tested on: SD rats; test: Oral glucose tolerance test (OGTT) after continuous administration in rats for 14 days; assay type: in vivo, rat; details: for blood sugar level of rats (OGTT): 0.009 mg/kg oral gavage, 14 days, OGTT on day 15; for loose stools in the experimental animals: rats, within 48 hours before and after the experiment
Protocol: • Experimental animals: SPF male SD rats; • Compound preparation: an appropriate amount of the compounds of Example 1, Example 2, Example 9, Example 10, and Example 17 were weighed, and uniformly suspended with an appropriate amount of 0.5% CMC-Na solution; • Preparation of glucose solution: an appropriate amount of glucose powder was weighed and dissolved with an appropriate amount of pure water; • Dosage and method of administration: 0.009 mg/kg, oral gavage.
Experimental process: the animals were fed a normal diet with consecutive administration for 14 days, and the glucose tolerance test was performed on day 15, blood glucose was detected before administration (−30 min), before giving glucose (0 min), and 10, 30, 60, and 120 min after giving glucose solution, and the defecation of animals was observed.

[3] = Lipid solubility and water solubility; assay type: physicochemical; details: compared with the compound of Example 5
[4] = Pharmacokinetic study in rats; assay type: in vivo, rat; details: 10 mg/kg, oral gavage, 0-24 hours
Protocol: 5. Pharmacokinetic Study in Rats • Experimental animals: SPF male SD rats; • Dosage and method of administration: 10 mg/kg, oral gavage. • Research compound: Dapagliflozin, the compound of Example 9, the compound of Example 10, the compound of Example 17, and the comparative compound 6;
Test method: Before administration (0), and 1, 4, 8, and 24 hours after administration, 0.2 ml of blood was collected from orbital venous plexus, anticoagulated with heparin, plasma was collected, and the blood drug concentration was determined.

SMILES	activity of inhibiting SGLT1 (in words) [1]	IC50 [1] [nM]	blood sugar level of rats (OGTT) [2]	loose stools in the experimental animals [2]	lipid solubility [3]	water solubility [3]	drug concentration in plasma [4]
CS[C@H]1O[C@@H](c2ccc(C)c(Cc3ccc(CCCC(=O)NC(C)(C)C(=O)NCCN(C)CC(=O)N4CCN(C)CC4)cc3)c2)[C@H](O)[C@@H](O)[C@@H]1O [Example 3]	significant activity of inhibiting SGLT1	0.93					
CS[C@H]1O[C@@H](c2ccc(C)c(Cc3ccc(CCCC(=O)NC(C)(C)C(=O)N4CCN(CC(=O)N5CCCC5)CC4)cc3)c2)[C@H](O)[C@@H](O)[C@@H]1O [Example 4]	significant activity of inhibiting SGLT1	0.87					
CS[C@H]1O[C@@H](c2ccc(C)c(Cc3ccc(CCCC(=O)NC(C)(C)C(=O)NCCN(C)CC(=O)N4CCCC4)cc3)c2)[C@H](O)[C@@H](O)[C@@H]1O [Example 1]	significant activity of inhibiting SGLT1	0.78	significantly reduce the blood sugar level	no loose stools were observed			
CS[C@H]1O[C@@H](c2ccc(C)c(Cc3ccc(CCCC(=O)NC(C)(C)C(=O)NCCN(C)CC(=O)N(C)Cc4cn(C5CC5)nn4)cc3)c2)[C@H](O)[C@@H](O)[C@@H]1O					better	better	
C#CCN(CCNC(=O)C(C)(C)NC(=O)CCCc1ccc(Cc2cc([C@@H]3O[C@H](SC)[C@@H](O)[C@H](O)[C@H]3O)ccc2C)cc1)CC(=O)N1CCCC1 [Example 9]	significant activity of inhibiting SGLT1	0.53	significantly reduce the blood sugar level	no loose stools were observed			did not reach the detection limit
CS[C@H]1O[C@@H](c2ccc(C)c(Cc3ccc(CCCC(=O)NC(C)(C)C(=O)NCCN(C)CC(=O)N(C)C)cc3)c2)[C@H](O)[C@@H](O)[C@@H]1O [Example 2]	significant activity of inhibiting SGLT1	1.12	significantly reduce the blood sugar level	no loose stools were observed			
C#CCN(C)C(=O)CN1CCN(C(=O)C(C)(C)NC(=O)CCCc2ccc(Cc3cc([C@@H]4O[C@H](SC)[C@@H](O)[C@H](O)[C@H]4O)ccc3C)cc2)CC1 [Example 17]	significant activity of inhibiting SGLT1	0.49	significantly reduce the blood sugar level	no loose stools were observed			did not reach the detection limit

Source: patent publication US12612427B2, “Aryl glucoside derivative, preparation method therefor and application thereof” (Shanghai Zheye Biotechnology Co. Ltd., priority 2020, dated 2026)
